Data reported in the NIST ThermoML archive (doi:10.1016/j.jct.2006.03.007).

Experiment: molar heat capacity at constant pressure
Details: 101.33 kPa, Crystal

O=C(O)c1cccc(C(=O)O)n1 [pyridine-2,6-dicarboxylic acid]
Details | molar heat capacity at constant pressure [J/K/mol]
84.05 K | 56.42
86.4 K | 56.44
88.71 K | 56.5
90.97 K | 56.59
93.19 K | 56.71
95.37 K | 56.85
97.51 K | 57.03
99.63 K | 57.23
101.72 K | 57.46
103.77 K | 57.71
105.81 K | 57.98
107.81 K | 58.27
109.8 K | 58.59
111.76 K | 58.92
113.7 K | 59.27
115.63 K | 59.65
117.53 K | 60.03
119.42 K | 60.44
121.29 K | 60.86
123.15 K | 61.3
124.99 K | 61.76
126.82 K | 62.23
128.63 K | 62.72
130.43 K | 63.22
132.22 K | 63.73
133.99 K | 64.25
135.76 K | 64.8
137.51 K | 65.35
139.25 K | 65.91
140.98 K | 66.49
142.69 K | 67.08
144.4 K | 67.68
146.1 K | 68.29
147.79 K | 68.91
149.46 K | 69.55
151.13 K | 70.19
152.79 K | 70.84
154.44 K | 71.5
156.08 K | 72.18
157.72 K | 72.86
159.35 K | 73.55
160.97 K | 74.25
162.58 K | 74.96
164.18 K | 75.68
165.77 K | 76.4
167.35 K | 77.13
168.92 K | 77.86
170.49 K | 78.61
172.04 K | 79.36
173.59 K | 80.11
175.13 K | 80.88
176.66 K | 81.65
178.19 K | 82.42
179.71 K | 83.2
181.22 K | 83.99
182.72 K | 84.78
184.23 K | 85.59
185.73 K | 86.39
187.22 K | 87.21
188.71 K | 88.03
190.19 K | 88.85
191.66 K | 89.68
193.13 K | 90.52
194.59 K | 91.35
196.06 K | 92.2
197.5 K | 93.04
200.08 K | 94.57
204.09 K | 96.99
207.23 K | 98.92
209.37 K | 100.26
211.49 K | 101.59
213.62 K | 102.95
217.8 K | 105.66
219.85 K | 107.01
221.9 K | 108.37
223.94 K | 109.74
225.95 K | 111.1
227.91 K | 112.43
229.9 K | 113.8
231.78 K | 115.1
233.73 K | 116.46
235.64 K | 117.81
237.61 K | 119.2
239.52 K | 120.56
241.4 K | 121.91
243.27 K | 123.26
245.17 K | 124.63
247.09 K | 126.04
248.98 K | 127.43
250.89 K | 128.84
252.77 K | 130.24
254.65 K | 131.65
256.51 K | 133.04
258.38 K | 134.45
260.23 K | 135.86
262.08 K | 137.27
263.92 K | 138.68
265.74 K | 140.08
267.58 K | 141.5
269.4 K | 142.91
271.2 K | 144.31
273 K | 145.72
274.79 K | 147.12
276.55 K | 148.51
278.32 K | 149.91
280.09 K | 151.31
281.85 K | 152.71
283.59 K | 154.09
285.32 K | 155.48
287.04 K | 156.85
288.74 K | 158.22
290.44 K | 159.59
292.1 K | 160.93
293.75 K | 162.27
295.39 K | 163.6
297.06 K | 164.95
298.72 K | 166.31
300.37 K | 167.65
302.01 K | 168.99
303.64 K | 170.32
305.27 K | 171.65
306.88 K | 172.98
310.09 K | 175.62
311.68 K | 176.93
313.25 K | 178.21
314.76 K | 179.47
316.65 K | 181.03
319.26 K | 183.18
322.04 K | 185.48
324.78 K | 187.75
327.48 K | 189.98
330.16 K | 192.2
332.81 K | 194.4
335.45 K | 196.59
338.09 K | 198.77
340.74 K | 200.97
343.44 K | 203.2
346.14 K | 205.43
348.74 K | 207.58
351.31 K | 209.7
353.85 K | 211.78
356.38 K | 213.86
358.86 K | 215.9
361.34 K | 217.92
363.79 K | 219.91
366.21 K | 221.88
368.6 K | 223.82
370.97 K | 225.73
375.64 K | 229.5
378 K | 231.38
